This series addresses ATXN2. Put plainly: mouse, dose not given. Conditions: ASO.

For 26 substances, 3 h FOB score results are on record in the OligoGym collection.

HELM strings list units from the 5' end as sugar, base in round brackets, then linkage (d deoxyribose, r ribose, m 2'-O-methyl, p phosphodiester). Strings are as the collection lists them; they lack the last nucleoside at the 3' end of the tested compound. [moe] = 2'-O-(2-methoxyethyl) (MOE); [sp] = phosphorothioate linkage; [m5C] = 5-methylcytosine

Substance “RNA1{[moe](A)[sp].[moe](G)p.[moe](T)p.[moe]([m5C])p.[moe](T)p.d(T)[sp].d(G)[sp].d(T)[sp].d(T)[sp].d([m5C])[sp].d(A)[sp].d(G)[sp].d(T)[sp].d(G)[sp].d(T)[sp].[moe]([m5C])p.[moe]([m5C])p.[moe](T)[sp].[moe](T)}$$$$ (last 3' nucleoside missing)” came in with a 3 h FOB score of 5 score 0-7. Under “RNA1{[moe](A)[sp].[moe](G)p.[moe]([m5C])p.[moe](A)p.[moe](T)p.d(G)[sp].d(A)[sp].d(T)[sp].d([m5C])[sp].d(T)[sp].d(T)[sp].d(G)[sp].d(T)[sp].d(G)[sp].d(T)[sp].[moe](A)p.[moe](T)p.[moe](A)[sp].[moe](T)}$$$$ (last 3' nucleoside missing)” stands 3 score 0-7; under “RNA1{[moe](A)[sp].[moe](G)p.[moe]([m5C])p.[moe](A)p.[moe](T)p.d([m5C])[sp].d(A)[sp].d(T)[sp].d(T)[sp].d(G)[sp].d(G)[sp].d([m5C])[sp].d(G)[sp].d([m5C])[sp].d(A)[sp].[moe](T)p.[moe](G)p.[moe](G)[sp].[moe](G)}$$$$ (last 3' nucleoside missing)”, 5 score 0-7; under “RNA1{[moe](A)[sp].[moe](G)p.[moe]([m5C])p.[moe](A)p.[moe]([m5C])p.d(A)[sp].d(T)[sp].d(G)[sp].d(A)[sp].d(T)[sp].d(T)[sp].d(G)[sp].d(T)[sp].d(A)[sp].d(A)[sp].[moe](A)p.[moe]([m5C])p.[moe](T)[sp].[moe](A)}$$$$ (last 3' nucleoside missing)”, 6 score 0-7. Under “RNA1{[moe](A)[sp].[moe](G)p.[moe]([m5C])p.[moe](T)p.[moe](T)p.[moe](A)p.d(G)[sp].d(A)[sp].d(G)[sp].d(T)[sp].d(T)[sp].d(T)[sp].d(T)[sp].d(T)[sp].d(G)[sp].d([m5C])[sp].[moe]([m5C])p.[moe](T)[sp].[moe](T)}$$$$ (last 3' nucleoside missing)” stands 5 score 0-7. In the case of “RNA1{[moe](A)[sp].[moe](G)p.[moe]([m5C])p.[moe](T)p.[moe](T)p.d(A)[sp].d(G)[sp].d(A)[sp].d(G)[sp].d(T)[sp].d(T)[sp].d(T)[sp].d(T)[sp].d(T)[sp].d(G)[sp].[moe]([m5C])p.[moe]([m5C])p.[moe](T)[sp].[moe](T)}$$$$ (last 3' nucleoside missing)” it was 5 score 0-7. On to “RNA1{[moe](A)[sp].[moe](G)p.[moe]([m5C])p.[moe](T)p.[moe]([m5C])p.d(A)[sp].d(T)[sp].d([m5C])[sp].d(A)[sp].d(A)[sp].d(G)[sp].d(G)[sp].d(T)[sp].d(A)[sp].d([m5C])[sp].[moe]([m5C])p.[moe](A)p.[moe](G)[sp].[moe](T)}$$$$ (last 3' nucleoside missing)”, for which the 3 h FOB score was 4 score 0-7. As to “RNA1{[moe](A)[sp].[moe](G)p.[moe]([m5C])p.[moe](T)p.[moe]([m5C])p.d(T)[sp].d(G)[sp].d(T)[sp].d(T)[sp].d([m5C])[sp].d(G)[sp].d(A)[sp].d(T)[sp].d(G)[sp].d([m5C])[sp].[moe](A)p.[moe](G)p.[moe](G)[sp].[moe](A)}$$$$ (last 3' nucleoside missing)”, the 3 h FOB score stood at 4 score 0-7. The substance “RNA1{[moe](A)[sp].[moe](G)p.[moe]([m5C])p.[moe](T)p.d(T)[sp].d(A)[sp].d(G)[sp].d(A)[sp].d(G)[sp].d(T)[sp].d(T)[sp].d(T)[sp].d(T)[sp].d(T)[sp].[moe](G)p.[moe]([m5C])p.[moe]([m5C])p.[moe](T)[sp].[moe](T)}$$$$ (last 3' nucleoside missing)” returned a 3 h FOB score of 4 score 0-7.

Regarding “RNA1{[moe](A)[sp].[moe](T)p.[moe](A)p.[moe](A)p.[moe](A)p.d([m5C])[sp].d(T)[sp].d(G)[sp].d(T)[sp].d(T)[sp].d(T)[sp].d(A)[sp].d([m5C])[sp].d(A)[sp].d(T)[sp].[moe]([m5C])p.[moe](T)p.[moe]([m5C])[sp].[moe]([m5C])}$$$$ (last 3' nucleoside missing)”, the 3 h FOB score amounted to 4 score 0-7.

Turning to “RNA1{[moe](A)[sp].[moe](T)p.[moe](A)p.[moe]([m5C])p.[moe](G)p.d([m5C])[sp].d(G)[sp].d(G)[sp].d(T)[sp].d(G)[sp].d(A)[sp].d(A)[sp].d(T)[sp].d(T)[sp].d([m5C])[sp].[moe](T)p.[moe](G)p.[moe](T)[sp].[moe]([m5C])}$$$$ (last 3' nucleoside missing)”, the 3 h FOB score is 1 score 0-7. Substance “RNA1{[moe](A)[sp].[moe](T)p.[moe](A)p.[moe]([m5C])p.[moe](T)p.d([m5C])[sp].d(T)[sp].d([m5C])[sp].d([m5C])[sp].d(A)[sp].d(T)[sp].d(T)[sp].d(A)[sp].d(T)[sp].d(T)[sp].[moe](T)p.[moe]([m5C])p.[moe](T)[sp].[moe](T)}$$$$ (last 3' nucleoside missing)” had a 3 h FOB score of 0 score 0-7. In the case of “RNA1{[moe](A)[sp].[moe](T)p.[moe](G)p.[moe](A)p.[moe](T)p.d([m5C])[sp].d(T)[sp].d(T)[sp].d(G)[sp].d(T)[sp].d(G)[sp].d(T)[sp].d(A)[sp].d(T)[sp].d(A)[sp].[moe](T)p.[moe](A)p.[moe](T)[sp].[moe](T)}$$$$ (last 3' nucleoside missing)” it was 6 score 0-7.

“RNA1{[moe](A)[sp].[moe](T)p.[moe](G)p.[moe](T)p.[moe](A)p.d(G)[sp].d(T)[sp].d(T)[sp].d(A)[sp].d([m5C])[sp].d(A)[sp].d(T)[sp].d(G)[sp].d(T)[sp].d(A)[sp].[moe](A)p.[moe]([m5C])p.[moe]([m5C])[sp].[moe](A)}$$$$ (last 3' nucleoside missing)” showed a 3 h FOB score of 2 score 0-7.

For “RNA1{[moe](A)[sp].[moe](T)p.[moe](G)p.[moe]([m5C])p.[moe](A)p.d(A)[sp].d([m5C])[sp].d(T)[sp].d(T)[sp].d(A)[sp].d(A)[sp].d(T)[sp].d(A)[sp].d(A)[sp].d([m5C])[sp].[moe]([m5C])p.[moe](T)p.[moe](T)[sp].[moe](A)}$$$$ (last 3' nucleoside missing)”, the 3 h FOB score was determined as 0.25 score 0-7. With “RNA1{[moe](A)[sp].[moe](T)p.[moe](G)p.[moe]([m5C])p.[moe](A)p.d(G)[sp].d(T)[sp].d(A)[sp].d([m5C])[sp].d(A)[sp].d(A)[sp].d([m5C])[sp].d(A)[sp].d(T)[sp].d(T)[sp].[moe]([m5C])p.[moe]([m5C])p.[moe](A)[sp].[moe](T)}$$$$ (last 3' nucleoside missing)”, the 3 h FOB score came out at 0 score 0-7. In the case of “RNA1{[moe](A)[sp].[moe](T)p.[moe](G)p.[moe]([m5C])p.[moe](A)p.d([m5C])[sp].d(T)[sp].d(G)[sp].d([m5C])[sp].d(T)[sp].d(T)[sp].d(G)[sp].d([m5C])[sp].d([m5C])[sp].d(T)[sp].[moe](G)p.[moe](G)p.[moe](A)[sp].[moe](G)}$$$$ (last 3' nucleoside missing)” it was 5 score 0-7; in that of “RNA1{[moe](A)[sp].[moe](T)p.[moe](G)p.[moe]([m5C])p.[moe](T)p.d(G)[sp].d(G)[sp].d(T)[sp].d(T)[sp].d([m5C])[sp].d([m5C])[sp].d(T)[sp].d(T)[sp].d(A)[sp].d([m5C])[sp].[moe](A)p.[moe](A)p.[moe](T)[sp].[moe](T)}$$$$ (last 3' nucleoside missing)”, 0 score 0-7; in that of “RNA1{[moe](A)[sp].[moe](T)p.[moe](T)p.[moe](T)p.[moe](T)p.d(G)[sp].d(A)[sp].d(A)[sp].d(T)[sp].d(T)[sp].d(A)[sp].d([m5C])[sp].d(A)[sp].d(A)[sp].d(T)[sp].[moe](G)p.[moe]([m5C])p.[moe](G)[sp].[moe](G)}$$$$ (last 3' nucleoside missing)”, 0 score 0-7. In the case of “RNA1{[moe](A)[sp].[moe](T)p.[moe](T)p.[moe]([m5C])p.[moe](T)[sp].d(G)[sp].d(T)[sp].d(A)[sp].d([m5C])[sp].d(T)[sp].d(T)[sp].d(T)[sp].d(T)[sp].[moe]([m5C])p.[moe](T)p.[moe]([m5C])[sp].[moe](A)}$$$$ (last 3' nucleoside missing)” it was 0 score 0-7; in that of “RNA1{[moe](A)[sp].[moe](T)p.[moe](T)p.[moe]([m5C])p.[moe](T)p.d(G)[sp].d(T)[sp].d(A)[sp].d([m5C])[sp].d(T)[sp].d(T)[sp].d(T)[sp].d(T)[sp].d([m5C])[sp].d(T)[sp].[moe]([m5C])p.[moe](A)p.[moe](T)[sp].[moe](G)}$$$$ (last 3' nucleoside missing)”, 1 score 0-7; in that of “RNA1{[moe](A)[sp].[moe](T)p.[moe]([m5C])p.[moe](A)p.[moe](A)p.d([m5C])[sp].d(T)[sp].d([m5C])[sp].d([m5C])[sp].d(A)[sp].d(A)[sp].d(A)[sp].d(G)[sp].d(G)[sp].d(T)[sp].[moe](A)p.[moe](G)p.[moe]([m5C])[sp].[moe](A)}$$$$ (last 3' nucleoside missing)”, 6 score 0-7.

The substance “RNA1{[moe](A)[sp].[moe](T)p.[moe]([m5C])p.[moe](A)p.[moe](G)p.d(T)[sp].d(A)[sp].d(T)[sp].d(T)[sp].d(T)[sp].d(A)[sp].d([m5C])[sp].d(T)[sp].d(A)[sp].d([m5C])[sp].[moe](T)p.[moe](T)p.[moe]([m5C])[sp].[moe](T)}$$$$ (last 3' nucleoside missing)” returned a 3 h FOB score of 2.75 score 0-7. Under “RNA1{[moe](A)[sp].[moe](T)p.[moe]([m5C])p.[moe](A)p.[moe](G)p.d(T)[sp].d(T)[sp].d(T)[sp].d(G)[sp].d(T)[sp].d(A)[sp].d(T)[sp].d(G)[sp].d(A)[sp].d([m5C])[sp].[moe]([m5C])p.[moe](A)p.[moe](T)[sp].[moe](A)}$$$$ (last 3' nucleoside missing)” stands 3 score 0-7; under “RNA1{[moe](A)[sp].[moe](T)p.[moe]([m5C])p.[moe](A)p.[moe](T)[sp].d([m5C])[sp].d(A)[sp].d(T)[sp].d(T)[sp].d(T)[sp].d(T)[sp].d([m5C])[sp].d([m5C])[sp].[moe](A)p.[moe](G)p.[moe](G)[sp].[moe](G)}$$$$ (last 3' nucleoside missing)”, 4.5 score 0-7. As for “RNA1{[moe](A)[sp].[moe](T)p.[moe]([m5C])p.[moe](T)p.[moe](A)p.d(T)[sp].d(G)[sp].d(A)[sp].d(T)[sp].d(T)[sp].d(T)[sp].d(T)[sp].d([m5C])[sp].d(A)[sp].d(T)[sp].[moe]([m5C])p.[moe](A)p.[moe](G)[sp].[moe](G)}$$$$ (last 3' nucleoside missing)”, the 3 h FOB score came to 0 score 0-7.
